Experimental data as given in PubChem BioAssay (NCI).
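Growth conditions: 96-well plates. Treatment: test compound, 48 hours, 5 concentrations. Analysis: linear interpolation between bracketing concentrations; unreached endpoints set to highest concentration. GI50: concentration for 50% inhibition of growth. TGI denotes the concentration required for complete inhibition of growth.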

Key:
Experiment in all cases: NCI tumour cell line growth inhibition, 48 h
CCRF-CEM leukemia = system: CCRF-CEM leukemia
OVCAR-4 ovarian = system: OVCAR-4 ovarian
M14 melanoma = system: M14 melanoma
MOLT-4 leukemia = system: MOLT-4 leukemia
SNB-75 CNS = system: SNB-75 CNS
PC-3 prostate = system: PC-3 prostate
MCF7 breast = system: MCF7 breast
NCI-H460 lung = system: NCI-H460 lung
SF-539 CNS = system: SF-539 CNS
OVCAR-3 ovarian = system: OVCAR-3 ovarian

SMILES	TGI (CCRF-CEM leukemia) [µM]	TGI (OVCAR-4 ovarian) [µM]	TGI (M14 melanoma) [µM]	TGI (MOLT-4 leukemia) [µM]	TGI (SNB-75 CNS) [µM]	TGI (PC-3 prostate) [µM]	TGI (MCF7 breast) [µM]	TGI (NCI-H460 lung) [µM]	TGI (SF-539 CNS) [µM]	GI50 (M14 melanoma) [µM]	GI50 (MOLT-4 leukemia) [µM]	GI50 (SNB-75 CNS) [µM]	GI50 (PC-3 prostate) [µM]	GI50 (MCF7 breast) [µM]	GI50 (NCI-H460 lung) [µM]	GI50 (SF-539 CNS) [µM]	GI50 (OVCAR-3 ovarian) [µM]	TGI (OVCAR-3 ovarian) [µM]	GI50 (CCRF-CEM leukemia) [µM]	GI50 (OVCAR-4 ovarian) [µM]
C=C(C)C1Cc2c(cc(OC)c3c(=O)c4cccc(O)c4oc23)O1 (stereo unspecified)	> 100	42.4	50.8	> 100	29.9	> 100	17.4	62.6	32.3	–	–	–	–	–	–	–	–	–	–	–
CN(CCCCCl)P(=O)(OCc1ccc([N+](=O)[O-])o1)OCC1OC(n2ccc(N)nc2=O)C(F)(F)C1O (stereo unspecified)	–	–	0.269	8.92	97.5	99.3	> 49	–	0.427	0.0537	0.379	12.5	1.82	0.45	0.3	0.0417	3.15	> 45.5	–	–
CCCCCCCC(=O)NCC(O)CNC(=O)CCCCCCC	> 100	> 100	> 100	> 100	> 100	–	–	> 100	> 100	–	–	–	–	–	–	–	–	> 100	–	–
Cc1ccc(NC(=O)Cc2ccc(/C=C/C(=O)c3ncc[nH]3)cc2)cc1	> 25	> 25	–	> 25	> 25	> 25	> 25	> 25	14	–	5.33	7	7.1	1.15	6.32	4.77	1.67	> 25	4.67	10.4
O=C(O)C1=CCCc2ccc3ccccc3c21	–	> 100	> 100	> 100	> 100	–	–	> 100	> 100	–	–	–	–	–	–	–	–	> 100	–	–
CC(C)(O)C#Cc1ccc(/C=C/C(=O)c2ccccc2)s1	64.9	39	–	43.6	27	29.7	16.7	33.5	29.2	–	16.8	13.7	13.6	3.63	17.3	15.8	17	31.5	13.6	17.1
CSc1cccc(-n2c3nc(=O)n(C)c(=O)c-3nc3ccccc32)c1	42.7	21.6	9.79	32.3	28.6	–	–	10.2	12.4	–	–	–	–	–	–	–	–	6.17	–	–
CCN(CC)CCCn1cnc2ncccc2c1=O	> 100	> 100	> 100	–	> 100	–	–	> 100	> 100	–	–	–	–	–	–	–	–	> 100	–	–
CCC1C(=O)OCc2c1cc1n(c2=O)Cc2cc3ccccc3nc2-1 (stereo unspecified)	–	> 100	13.7	> 22	25.9	> 100	> 48.6	64.4	5.67	–	–	–	–	–	–	–	–	> 100	–	–
C/C=C/C1=C(Cl)C(=O)[C@@H](Cl)[C@@]1(O)C(=O)OC	> 24	5.59	11.9	12.9	32.8	–	3.89	15.2	5.45	–	–	–	–	–	–	–	–	6.94	–	–
O=C1c2cccnc2C(=O)C2C3C=CC(C3)C12 (stereo unspecified)	–	21.7	28	–	25.8	21.8	15.4	15.6	13.4	–	–	–	–	–	–	–	–	31.8	–	–
O=c1c2ccccc2c(Br)c(Br)c2ccccc12	–	80.9	16.3	–	56	30.2	46.1	34.5	37.2	4.8	–	19.2	10.1	5.6	14.5	13.3	3.37	12	–	9.24
O=C(CCC(=O)Nc1cccc(Cl)c1)CC(=O)c1ccc(F)cc1	–	> 100	> 100	> 100	> 100	–	–	> 100	> 100	–	–	–	–	–	–	–	–	> 100	–	–
CCOC(=O)c1sc2ncn(Cc3cccc(Br)c3)c(=O)c2c1C	–	81.3	53.8	> 100	> 100	> 100	> 100	> 100	> 100	20.9	25.3	69.2	25.5	31.4	77.3	84.5	39.7	> 100	–	30.9
[Cl][Sn]([Cl])([c]1ccccc1)[c]1ccccc1	5.76	31	29	36.9	22.9	–	–	–	29.4	15.3	5.25	10.8	–	–	–	16	13.4	26.2	1.74	16.8
CN(C)CCN(C)CC1COC(C)(C)O1 (stereo unspecified)	> 100	> 100	> 100	> 100	> 100	–	–	> 100	> 100	–	–	–	–	–	–	–	–	> 100	–	–
C/C(=N\NC(N)=S)c1cc(C)c(C)cc1C	> 100	> 100	> 100	84.5	85.3	–	–	> 100	> 100	–	–	–	–	–	–	–	–	60.3	–	–
CC1=C(/C=C/C(=O)O)C(C)(C)CCC1	–	> 100	> 100	–	> 100	> 100	> 100	> 100	> 100	–	–	–	–	–	–	–	–	> 100	–	–
Cc1oc2c(C)c3oc(=O)cc(C)c3cc2c1CNC(=O)[C@@H]1OCCOCCOCCOCCOCCOC1C(=O)O (stereo partly specified)	> 100	> 100	27.5	> 100	> 100	–	–	> 100	> 100	–	–	–	–	–	–	–	–	> 100	–	–
c1ccc2c(c1)sc1c3cnccc3ccc21	–	> 100	> 100	> 100	> 100	–	> 100	> 100	> 100	–	–	–	–	–	–	–	–	> 100	–	–
